Experimental data published in patent publication US20150238466A1, “LIM KINASE INHIBITORS” (RAMOT AT TEL-AVIV UNIVERSITY LTD., priority 2012, published 2015).
Where “and” joins values, the source holds several entries; their conditions need not be identical. Equal entries are not always repeated.

Columns and labels:
LIMK = test: Western blot of p-cofilin in NF1−/− MEFs; format: cell-based, mouse
Method: FIG. 3A-B presents an immunoblot and graphical presentation of immunoblots. […] Normalization was performed using beta-tubulin. Average inhibition was calculated as a percentage of control (mean±SD, n=3,*P<0.05; **P<0.01 compared to control (Student's t-test)).
NF1−/− MEFs were plated at a density of lx 10^5 or 5×10^5 cells in 6-well plates or 10-cm dishes, respectively, and were allowed to grow overnight in a medium containing 10% FCS. […] The cells were then lysed with solubilization buffer (50 mMTris-HCl at a pH of 7.6, 20 mM MgCl2, 200 mM NaCl, 0.5% NP40, 1 mM Dithiothreitol, and protease inhibitors), and the lysate (50 μg) was subjected to SDS-PAGE and then immunoblotted with one of the following antibodies: anti-p-cofilin (1:1000), anti-cofilin (1:1000), anti-β-tubulin (1:500). The immunoblots were then exposed to peroxidase-goat anti-rabbit IgG (1:2500), and protein bands were visualized by enhanced chemiluminescence and quantified by densitometry (EZ-Qant). Rabbit anti-cofilin and p-cofilin (Ser3) were from Cell Signaling Technolgy (Beverly, Mass.); mouse anti-β-tubulin antibody was from Sigma-Aldrich; peroxidase-goat anti-mouse IgG and peroxidase-goat anti-rabbit IgG were from Jackson ImmunoResearch Laboratories (West Grove, Pa.).
It has been previously shown that the levels of phosphorylated cofilin (p-cofilin) are high in NF1^−/− Mouse Embryonic Fibroblasts (MEFs). Thus, these cells were used herein to examine the impact of compound 1 on phosphorylation of cofilin.
The cells were lysed and subjected to immunoblotting with anti-p-cofilin, anti-cofilin, and anti-β-tubulin (as loading control) antibodies. […] These findings, taken together, support the predicted LIMK model as well as the predicted LIMK inhibitor.

NF1−/− MEFs [1] = test: Growth (cell number) of NF1−/− MEFs, direct counting after 5 days; format: cell-based, mouse; conditions: for inhibition at 5 µM / inhibition at 25 µM: Mus musculus
Method: Cells were directly counted and typical inhibition curves are shown (means±SEM, n=9; **P<0.01, ***P<0.001).
The cells were plated in 24-well plates at a density of 5×10^3 cells per well.

NF1−/− MEFs [2] = test: Actin stress fibers, rhodamine-phalloidin staining of NF1−/− MEFs; format: cell-based, mouse
Method: MEFs were seeded on glass coverslips in 6-well plates at the densities of 2.5×10^4 cells per well. […] Cells were further incubated for 24 hours and were then fixed, permeabilized, and washed. Rhodamine-labeled phalloidin was added for 30 minutes and the slides were then washed, mounted, and imaged. F-actin was visualized and then photographed under an LSM510 confocal microscope (×63 objective) fitted with rhodamine filters. Statistical analysis was performed by counting 100 cells from each slide, with or without stress fibers, under an Olympus fluorescence microscope.

[3] = test system: Panc-1-pancreatic cancer tumor cell line; test: Growth inhibition of Panc-1 cells; format: cell-based; conditions: Homo sapiens, 120 h; Panc-1, 5 days; read-out: IC50, reduction of cell number
Description: (§1) Cells were directly counted and typical inhibition curves are shown.

Panc-1 tumor = test: Panc-1 human pancreatic tumor growth in nude mice; format: in vivo, mouse; conditions: for average tumor size: control group 745
Description: FIG. 11A—Panc-1 cells were implanted s.c. in the right flank of athymic nude mice. After 7 days, the mice were separated randomly into one vehicle-treated control group and two T-56-LIMKi groups (n=8). […] Tumor volumes (means±S.E.M, * p-value<0.05) during the experiment period are shown. FIG. 11B—The mice were weighted at indicated time point. Presented are average weights of each group (grams±stdev).
Nude CD1-Nu mice (6 weeks old) were housed in barrier facilities on a 12-h light/dark cycle. Food and water were supplied ad libitum. On day zero, 5×10^6 Panc-1 cells in 0.1 ml of PBS were implanted s.c. just above the right femoral joint When tumor volumes reached values of 0.06-0.07 cm3 (day 0 of compound-1 treatment), the mice were randomly separated into three groups. Control mice received vehicle; compound-1-treated mice received 30 or 60 mg/kg T56-LIMKi (oral administration of 0.1 ml with 0.5% CMC daily). Tumor volume was calculated as (length×width)×[(length+width)÷2].
The effects of compound ion human pancreatic tumor growth in nude mice was examined, i.e., on cell transformation in an in vivo model. Mice received 5×10^6 cells subcutaneously (s.c.) in the right flank. […] By day 31, 4 out of 8 tumors in the 60 mg/kg treated group disappeared completely.

NF1−/− MEFs [4] = test: Anchorage-independent growth in soft agar; format: cell-based, mouse; conditions: 25 and 50 μM, 14 days
Method: FIG. 7B is a graph showing a statistical analysis of the anchorage-independent growth experiment. Columns, mean (n=5); bars, SD; *P<0.001.
Noble agar 2% (Difco, Detroit, Mich.) was mixed with DMEM×2 medium, containing 10% FCS, 4 mM L-glutamine, 200 units/mL penicillin, and 0.2 mg/mL streptomycin. The mixture (50 μL) was poured into 96-well plates to provide the agar base at a final agar concentration of 1%. […] The cells were incubated for 14 days and then stained for 4 hours with 1 mg/mL 344,5-dimethylthiazol-2-yl)-2 5-diphenyltetrazolium bromide (MTT; Sigma-Aldrich, St. Louis, Mo.), which stains active mitochondria in living cells, and the colonies were imaged. Colonies larger than 0.16 mm^2 (mean±SD, n=5) were counted using Image-Pro Plus software (Media Cybernetics, Carlsbad, Calif.). The average percentage of colonies in each group (means±SD, n=5) was calculated by dividing the number of colonies of a particular treatment and specific group size by the number of colonies of the same size in the corresponding untreated control group.

ST-88-swanoma = test: Growth inhibition of ST-88 cells; format: cell-based; conditions: 120 h; ST-88, 5 days; read-out: IC50, reduction of cell number
Description: as §1

[5] = In-vivo toxicity, single oral dose in nude mice; conditions: single oral dose 20-100 mg/kg in 0.5% CMC, followed for 2 weeks
Description: The mice were weighted and followed for 14 days after the administration. Average weight of treated mice is presented. (n=2).
The mice were followed for 2 weeks to measure toxic effects.

U87-glioblastoma = test: Growth inhibition of U87 cells; format: cell-based; conditions: Homo sapiens, U-87 MG, 120 h; U87, 5 days; read-out: IC50, reduction of cell number
Description: as §1

NF1−/− MEFs [6] = test: Scratch-induced (wound-healing) migration assay, NF1−/− MEFs; format: cell-based, mouse; conditions: within 3 hours, compound 1 at 50 μM; untreated cells 50%
Method: (§2) FIG. 6 is a graph showing gap width in NF1−/− MEFs cells examined (mean±SD, n=9), expressed as a percentage of the gap at the time of scratching.
(§3) Scratch-induced migration assay was performed as described in Goldberg et al.. Briefly, NF1-knockout and wt MEFs were seeded on collagen-covered 35-mm plates at a cell density of 1.5×10^5 per plate. […] Three areas were scratched in each plate, creating three gaps of similar widths. The media and the inhibitors were then replenished. Immediately thereafter, and at the time points indicated in the Examples section, phase-contrast images of the plates were obtained with a CCD camera connected to an Olympus fluorescence microscope (×10 objective). The region imaged was marked at time “zero” in order to enable photographing the same area at the different time points, and so that a specific population of migrating cells may be examined. The widths of the gaps treated with the inhibitor were measured at different time points, using the Image-Pro Plus software. […] Statistical analysis of the results was performed, of either the mean gap width (in arbitrary units) of compound 1-treated cells relative to the control at different time points (means±SD, n=9) or the percentage of migration, calculated as the width of the gap still open at the final time point, expressed as a percentage of the gap size at zero time for each treatment (means±SD, n=9). […]

wt MEFs = test: Scratch-induced (wound-healing) migration assay, wt MEFs; format: cell-based, mouse; conditions: compound 1 at 50 μM
Method: as §2, §3

CC(C)C(=O)Nc1ncc(-c2cc(C(F)F)nn2-c2c(Cl)cccc2Cl)s1 [BMS-5, N-{5-(2-(2,6-dichloro-phenyl)-5-difluoromethyl-2H-pyrazol-3-yl)-thiazol-2-yl}-isobutyramide, reference compound]
reduction of p-cofilin level, potency compared with compound 1 (LIMK; similar experiment, 2 hours, NF1−/− MEFs): more potent than compound 1

CC(C)=CCC/C(C)=C/CC/C(C)=C/CSc1ccccc1C(=O)O [FTS, S-trans, trans-farnesyl thiosalicyclic acid, reference compound]
growth inhibition (NF1−/− MEFs [1]; FTS alone (zero compound 1)): 33%±1.6% | decrease in stress fiber formation (NF1−/− MEFs [2]; FTS alone): 20%±5.6%

Cc1cc(C(=O)Nc2cccc(C(=O)Nc3cccc(C(F)(F)F)c3)c2)on1 [compound 1]
IC50 [3]: ~25 µM | significance of the reduction of tumor volume (Panc-1 tumor; 60 mg/kg daily oral): significant from day 18 | mouse weight (Panc-1 tumor; 30 or 60 mg/kg daily oral): not affected | signs of cytotoxicity (Panc-1 tumor; 30 or 60 mg/kg daily oral): no signs of cytotoxicity | average tumor size (Panc-1 tumor; Day 22, 30 mg/kg daily oral): 488 mm^3 | average tumor size (Panc-1 tumor; Day 22, 60 mg/kg daily oral): 268 mm^3 | tumors that disappeared completely (Panc-1 tumor; by day 31, 60 mg/kg daily oral): 4 out of 8 | inhibition at 5 µM (NF1−/− MEFs [1]; compound 1 at 5 μM in the absence of FTS): 13% | inhibition at 5 µM (NF1−/− MEFs [1]; compound 1 at 5 μM in the presence of FTS): 60% | inhibition at 25 µM (NF1−/− MEFs [1]; compound 1 at 25 μM in the absence of FTS): 51% | inhibition at 25 µM (NF1−/− MEFs [1]; compound 1 at 25 μM in the presence of FTS): 85.5% | reduction in cell proliferation (NF1−/− MEFs [1]; compound 1 at 50 μM): 70% | inhibition of cofilin phosphorylation by LIMK (LIMK; 50 μM): about 50% | amounts of total cofilin (LIMK; 2 hours, NF1−/− MEFs): did not affect | level of p-cofilin (LIMK; compound 1 at 10-50 μM, 2 hours, serum-starved NF1−/− MEFs): reduced | colony formation in soft agar (NF1−/− MEFs [4]): inhibited in a dose-dependent manner | IC50 (ST-88-swanoma): ~25 µM | body weight [5]: no weight lost was detected | toxic effects (appearance of mice) [5]: looked normal at all doses | toxic effects (appearance of mice) ([5]; listed as T56-LIMKi): not toxic | IC50 (U87-glioblastoma): ~25 µM | gap closed (NF1−/− MEFs [6]): 10% | mobility of wt MEFs (wt MEFs): not affected | decrease in the number of cells exhibiting stress fibers (NF1−/− MEFs [2]; compound 1 at 50 μM): 26%±7.7% and 30%
